Measurements as given in US9771370B2, “Compounds for the inhibition of indoleamine-2,3-dioxygenase” (Merck Patent GmbH, priority 2014, dated 2017).
“And” between values parts separate entries of the source, which are not always exact repeats. Equal values may be shown once.

Biological target: Recombinant human IDO (Homo sapiens, UniProt P14902)
Experiment: Bridge-IT tryptophan fluorescence assay of human IDO-1 inhibition
Assay type: biochemical
Conditions: recombinant human IDO 7.5 nM, L-tryptophan
How it was run: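 Two protocol variants: 100 μM L-Trp for 90 min at 37 °C, or 30 min enzyme–compound pre-incubation at 25 °C, then 50 μM L-Trp for 60 min at 25 °C. Reaction stopped in Bridge-IT solution A for 30 min at 30 °C.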

Sequence of Recombinant human IDO (P14902 whole entry): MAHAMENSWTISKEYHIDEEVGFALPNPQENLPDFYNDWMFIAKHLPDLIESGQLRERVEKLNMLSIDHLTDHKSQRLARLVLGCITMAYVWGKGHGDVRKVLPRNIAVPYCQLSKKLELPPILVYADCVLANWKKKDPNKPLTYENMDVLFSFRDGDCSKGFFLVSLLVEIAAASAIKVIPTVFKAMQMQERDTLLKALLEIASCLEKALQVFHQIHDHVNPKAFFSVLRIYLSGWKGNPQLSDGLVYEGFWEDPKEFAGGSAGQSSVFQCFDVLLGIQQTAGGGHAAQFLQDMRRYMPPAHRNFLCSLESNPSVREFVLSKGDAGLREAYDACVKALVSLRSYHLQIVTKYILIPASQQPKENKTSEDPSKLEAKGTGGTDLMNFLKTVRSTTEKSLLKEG

SMILES	IC50
CC1(C)CCC(CCC2c3ncccc3-c3cncn32)CC1 (centres unmarked) [Compound 51, 7-[2-(4,4-dimethylcyclohexyl)ethyl]-4,6,9-triazatricyclo[6.4.0.0^[2,6]]dodeca-1(8),2,4,9,11-pentaene]	> 1000 nM
OC(CC1c2nc(Cl)ccc2-c2cncn21)C1CCC(F)(F)CC1 (centres unmarked) [Compound 52b, 2-[10-chloro-4,6,9-triazatricyclo[6.4.0.0^[2,6]]dodeca-1(8),2,4,9,11-pentaen-7-yl]-1-(4,4-difluorocyclohexyl)ethan-1-ol]	100 to 1000 nM
COc1ccc2c(n1)C(CC(O)C1CCC3(CC1)CC3)n1cncc1-2 (centres unmarked) [Compound 53a, 2-[10-methoxy-4,6,9-triazatricyclo[6.4.0.0^[2,6]]dodeca-1(8),2,4,9,11-pentaen-7-yl]-1-[spiro[2.5]octan-6-yl]ethan-1-ol]	100 to 1000 nM
OC(CC1c2nc(C3CC3)ccc2-c2cncn21)C1CCCCC1 (centres unmarked) [Compound 56a, 1-cyclohexyl-2-[10-cyclopropyl-4,6,9-triazatricyclo[6.4.0.0^[2,6]]dodeca-1(8),2,4,9,11-pentaen-7-yl]ethan-1-ol]	< 100 nM
OC(CC1c2nc(C3CC3)ccc2-c2cncn21)C1CCC(F)(F)CC1 (centres unmarked) [Compound 57a, 2-[10-cyclopropyl-4,6,9-triazatricyclo[6.4.0.0^[2,6]]dodeca-1(8),2,4,9,11-pentaen-7-yl]-1-(4,4-difluorocyclohexyl)ethan-1-ol]	> 1000 nM
NC(=O)C1CCC(C(O)CC2c3ncccc3-c3cncn32)CC1 (centres unmarked) [Compound 63a, 4-[1-hydroxy-2-[4,6,9-triazatricyclo[6.4.0.0^[2,6]]dodeca-1(8),2,4,9,11-pentaen-7-yl]ethyl]cyclohexane-1-carboxamide]	> 1000 nM
OC(CC1c2ncncc2-c2cncn21)C1CCCCC1 (centres unmarked) [Compound 67a, 1-cyclohexyl-2-[4,6,9,11-tetraazatricyclo[6.4.0.0^[2,6]]dodeca-1(8),2,4,9,11-pentaen-7-yl]ethan-1-ol]	> 1000 nM and 100 to 1000 nM
OCC1CCC(C(O)CC2c3ncccc3-c3cncn32)CC1 (centres unmarked) [Compound 73a, 1-[4-(hydroxymethyl)cyclohexyl]-2-[4,6,9-triazatricyclo[6.4.0.0^[2,6]]dodeca-1(8),2,4,9,11-pentaen-7-yl]ethan-1-ol]	> 1000 nM
OC1CCC(C(F)(F)CC2c3c(F)cccc3-c3cncn32)CC1 (centres unmarked) [Compound 75a, 4-(1,1-difluoro-2-[6-fluoro-5H-imidazo[4,3-a]isoindol-5-yl]ethyl)cyclohexan-1-ol]	< 100 nM
OC1(C2CCC(F)(CCC3c4c(F)cccc4-c4cncn43)CC2)CC1 (centres unmarked) [Compound 85b, 1-[4-fluoro-4-(2-[6-fluoro-5H-imidazo[4,3-a]isoindol-5-yl]ethyl)cyclohexyl]cyclopropan-1-ol]	100 to 1000 nM
CC(C)(O)C1CCC(F)(CCC2c3c(F)cccc3-c3cncn32)CC1 (centres unmarked) [Compound 86a, 2-[4-fluoro-4-(2-[6-fluoro-5H-imidazo[4,3-a]isoindol-5-yl]ethyl)cyclohexyl]propan-2-ol]	100 to 1000 nM
OC1CCC(F)(CCC2c3nccc(F)c3-c3cncn32)CC1 (centres unmarked) [Compound 103b, 4-fluoro-4-(2-[12-fluoro-4,6,9-triazatricyclo[6.4.0.0^[2,6]]dodeca-1(8),2,4,9,11-pentaen-7-yl]ethyl)cyclohexan-1-ol]	> 1000 nM
OC1(C2CCC(F)(CCC3c4c(Cl)cccc4-c4cncn43)CC2)CC1 (centres unmarked) [Compound 106b, 1-[4-(2-[6-chloro-5H-imidazo[4,3-a]isoindol-5-yl]ethyl)-4-fluorocyclohexyl]cyclopropan-1-ol]	100 to 1000 nM
CC(C)(O)C1CCC(F)(CCC2c3c(Cl)cccc3-c3cncn32)CC1 (centres unmarked) [Compound 107b, 2-[4-(2-[6-chloro-5H-imidazo[4,3-a]isoindol-5-yl]ethyl)-4-fluorocyclohexyl]propan-2-ol]	100 to 1000 nM
OC(CC1c2ncccc2-c2cncn21)C1(F)CCCCC1 (centres unmarked) [Compound 109b, 1-(1-fluorocyclohexyl)-2-[4,6,9-triazatricyclo[6.4.0.0^[2,6]]dodeca-1(8),2,4,9,11-pentaen-7-yl]ethan-1-ol]	100 to 1000 nM
O=C(C1CCC(F)(CCC2c3c(F)cccc3-c3cncn32)CC1)N1CCCCC1 (centres unmarked) [Compound 110a]	< 100 nM
CN(C)C(=O)C1CCC(F)(CCC2c3c(F)cccc3-c3cncn32)CC1 (centres unmarked) [Compound 111b, 4-fluoro-4-(2-[6-fluoro-5H-imidazo[4,3-a]isoindol-5-yl]ethyl)-N,N-dimethylcyclohexane-1-carboxamide]	100 to 1000 nM
